Test results reported in ChEMBL document CHEMBL6121063, “Identification of a Potent and Selective CDK9 Degrader as a Targeted Therapeutic Option for the Treatment of Small-Cell Lung Cancer” (J Med Chem, 2025).
Calls of active or inactive are those of the source. The calls are words filed in the database; no cut-off is given here.

Key:
NCI-H69 [1] = assay: Induction of apoptosis in human NCI-H69 cells incubated for 36 hrs by Annexin V-FITC/PI staining based flow cytometric analysis; format: functional, cell-based; settings: dose 1-8 nM
NCI-H446 [2] = assay: Inhibition of colony formation in human NCI-H446 cells at 2 to 4 nM incubated for 8 days by crystal violet staining based analysis; format: functional, cell-based; settings: dose 2-4 nM, time 8.0 day
[3] = test system: Small cell lung cancer cell line; assay: Antitumor activity against LDI-2025-362195 patient derived Small cell lung cancer cell line xenografted in BALB/c nude mouse assessed as reduction in tumor growth at 25 mg/kg, po administered once daily for 7 days; format: functional, organism-based; settings: Homo sapiens, time 7.0 day
DMS-114 = assay: Inhibition of cell invasion in human DMS-114 cells assessed as decrease in number of cells passing through upper chamber at 2to 4 nM incubated for 48 hrs by crystal violet staining based microscopic analysis; format: functional
NCI-H69 [4] = assay: Induction of apoptosis in human NCI-H69 cells assessed as increase in cleaved PARP level incubated for 36 hrs by Western blot analysis; format: functional, cell-based
NCI-H69 [5] = assay: Inhibition of colony formation in human NCI-H69 cells at 2 to 4 nM incubated for 8 days by crystal violet staining based analysis; format: functional, cell-based; settings: dose 2-4 nM, time 8.0 day
[6] = molecular target: T1, Protein cereblon/Cyclin-dependent kinase 9 (Homo sapiens, UniProt P50750+Q96SW2); assay: PROTAC activity at CRBN/CDK9 in human NCI-H69 cells assessed as induction of CDK9 degradation preincubated with MG132 for 2 hrs followed by compound addition and measured after 3 hrs by Western blot analysis; format: cell-based
NCI-H69 [7] = assay: Induction of apoptosis in human NCI-H69 cells assessed as decrease in MCL-1 expression incubated for 36 hrs by Western blot analysis; format: functional, cell-based
NCI-H446 [8] = assay: Cell cycle arrest in human NCI-H446 cells assessed as increase in G1 phase population incubated for 36 hrs by PI staining based flow cytometric analysis; format: functional; settings: dose 0.5-2 nM
[9] = molecular target: CDK1/Cyclin E (Homo sapiens) (UniProt P06493+P24864); assay: Inhibition of CDK1/cyclin E1 (unknown origin) at 10 nM relative to control; format: protein-complex assay
NCI-H446 [10] = assay: Antitumor activity against human NCI-H446 cells expressing luciferase-GFP xenografted in female NU-NU mouse model assessed as decrease in systemic metastasis at 12.5 to 25 mg/kg, po administered for 19 days; format: functional, organism-based; settings: dose 12.5-25 mg/kg, time 19.0 day
NCI-H69 [11] = assay: Cell cycle arrest in human NCI-H69 cells assessed as increase in G1 phase population incubated for 36 hrs by PI staining based flow cytometric analysis; format: functional; settings: dose 0.5-4 nM
NCI-H69 [12] = assay: Induction of apoptosis in human NCI-H69 cells assessed as increase in p53 level incubated for 36 hrs by Western blot analysis; format: functional, cell-based
[13] = molecular target: Cyclin-Y/Cyclin-dependent kinase 16 (Homo sapiens) (UniProt Q00536+Q8ND76); settings: dose 10.0 nM
[14] = molecular target: T1, Protein cereblon/Cyclin-dependent kinase 9; assay: PROTAC activity at CRBN/CDK9 in human NCI-H446 cells assessed as induction of CDK9 degradation by measuring reduction in half-life incubated upto 24 hrs in presence of cycloheximide by Western blot analysis; format: cell-based
[15] = molecular target: CDK6/cyclin D3 (Homo sapiens) (UniProt P30281+Q00534); assay: Inhibition of CDK6/cyclin D3 (unknown origin) at 10 nM relative to control; format: protein-complex assay
[16] = test system: Small cell lung cancer cell line; assay: Antitumor activity against LDI-0060-200770 patient derived Small cell lung cancer cell line xenografted in BALB/c nude mouse assessed as reduction in tumor growth at 25 mg/kg, po administered once daily for 7 days; format: functional, organism-based; settings: Homo sapiens, time 7.0 day
NCI-H446 [17] = assay: Antiproliferative activity against human NCI-H446 cells assessed as reduction in cell viability incubated for 72 hrs in presence of thalidomide by celltiter-Glo assay; format: functional, cell-based
NCI-H69 [18] = assay: Downregulation of CDK9 protein level in human NCI-H69 cells at 1 to 10 nM incubated for 8 hrs by Western blot analysis; format: functional, cell-based; settings: dose 1-10 nM
[19] = molecular target: T1, Protein cereblon/Cyclin-dependent kinase 9; assay: In vivo PROTAC activity at CRBN/CDK9 in female NU/NU mouse model xenografted with human NCI-H446 cells assessed as decrease in CDK9 expression in tumor at 12.5 to 25 mg/kg, po administered once daily for 15 days by immunohistochemical staining based analysis; format: functional, organism-based; settings: dose 12.5-25 mg/kg, time 15.0 day
[20] = molecular target: Cyclin-dependent kinase 2/cyclin E1 (Homo sapiens) (UniProt P24864+P24941); settings: dose 10.0 nM
NCI-H446 [21] = assay: Antitumor activity against human NCI-H446 cells xenografted in female NU-NU mouse model assessed as increase in cleaved caspase-3 expression in tumor at 12.5 to 25 mg/kg, po administered once daily for 15 days by immunohistochemical staining based analysis; format: functional, organism-based; settings: dose 12.5-25 mg/kg, time 15.0 day
NCI-H69 [22] = assay: Induction of apoptosis in human NCI-H69 cells at 1 nM by microscopic analysis; format: functional, cell-based
[23] = molecular target: CDK6/cyclin D1 (Homo sapiens) (UniProt P24385+Q00534); assay: Inhibition of CDK6/cyclin D1 (unknown origin) at 10 nM relative to control; format: protein-complex assay
NCI-H69 [24] = assay: Antiproliferative activity against human NCI-H69 cells assessed as reduction in cell viability incubated for 72 hrs in presence of thalidomide by celltiter-Glo assay; format: functional, cell-based
[25] = molecular target: CDK3/Cyclin E (Homo sapiens) (UniProt P24864+Q00526); assay: Inhibition of CDK3/cyclin E1 (unknown origin) at 10 nM relative to control; format: protein-complex assay
Sequence of CDK3/Cyclin E (Homo sapiens) (P24864 whole entry, looked up): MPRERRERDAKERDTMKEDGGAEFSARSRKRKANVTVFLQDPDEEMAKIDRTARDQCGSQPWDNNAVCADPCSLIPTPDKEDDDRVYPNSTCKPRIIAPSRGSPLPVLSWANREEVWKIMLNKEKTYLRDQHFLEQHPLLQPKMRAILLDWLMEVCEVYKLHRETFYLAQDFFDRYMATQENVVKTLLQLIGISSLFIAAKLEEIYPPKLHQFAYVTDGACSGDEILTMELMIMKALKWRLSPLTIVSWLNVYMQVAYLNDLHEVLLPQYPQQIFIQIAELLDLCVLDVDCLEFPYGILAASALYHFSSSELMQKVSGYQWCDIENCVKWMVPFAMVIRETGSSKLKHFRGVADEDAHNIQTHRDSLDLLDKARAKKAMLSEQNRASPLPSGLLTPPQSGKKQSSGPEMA
Sequence of CDK3/Cyclin E (Homo sapiens) (Q00526 whole entry, looked up): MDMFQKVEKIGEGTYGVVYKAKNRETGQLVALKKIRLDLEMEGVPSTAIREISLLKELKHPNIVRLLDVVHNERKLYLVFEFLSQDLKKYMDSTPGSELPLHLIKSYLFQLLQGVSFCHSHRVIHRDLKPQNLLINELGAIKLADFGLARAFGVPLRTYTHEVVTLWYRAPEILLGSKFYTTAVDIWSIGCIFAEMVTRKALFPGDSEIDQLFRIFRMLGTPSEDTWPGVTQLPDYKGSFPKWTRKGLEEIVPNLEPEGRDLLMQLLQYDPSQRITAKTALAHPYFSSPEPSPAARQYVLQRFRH

T1 sequence (P50750 whole entry, looked up): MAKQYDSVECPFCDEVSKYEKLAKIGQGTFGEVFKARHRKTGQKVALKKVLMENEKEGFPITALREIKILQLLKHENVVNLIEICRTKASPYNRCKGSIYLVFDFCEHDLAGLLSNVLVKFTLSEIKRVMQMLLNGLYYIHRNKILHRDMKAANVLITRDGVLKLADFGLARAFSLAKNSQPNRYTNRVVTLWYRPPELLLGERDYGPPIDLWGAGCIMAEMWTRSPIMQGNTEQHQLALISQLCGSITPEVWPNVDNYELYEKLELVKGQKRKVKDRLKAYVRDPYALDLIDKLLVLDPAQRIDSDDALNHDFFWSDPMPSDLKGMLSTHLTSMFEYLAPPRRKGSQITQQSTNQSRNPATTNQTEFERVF
T1 sequence (Q96SW2 whole entry, looked up): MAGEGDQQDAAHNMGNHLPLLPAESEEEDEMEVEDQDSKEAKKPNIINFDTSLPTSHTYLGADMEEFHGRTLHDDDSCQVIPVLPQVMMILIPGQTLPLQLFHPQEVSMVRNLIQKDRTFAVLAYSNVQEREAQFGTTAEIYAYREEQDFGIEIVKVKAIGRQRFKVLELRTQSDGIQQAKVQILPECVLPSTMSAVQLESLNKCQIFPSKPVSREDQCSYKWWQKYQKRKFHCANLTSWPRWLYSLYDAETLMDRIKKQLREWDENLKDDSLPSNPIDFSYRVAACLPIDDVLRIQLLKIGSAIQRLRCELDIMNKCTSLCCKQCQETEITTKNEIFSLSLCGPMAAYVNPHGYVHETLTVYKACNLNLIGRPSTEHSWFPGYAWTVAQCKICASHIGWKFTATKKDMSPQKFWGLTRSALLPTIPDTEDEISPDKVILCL
Sequence of CDK1/Cyclin E (Homo sapiens) (P06493 whole entry, looked up): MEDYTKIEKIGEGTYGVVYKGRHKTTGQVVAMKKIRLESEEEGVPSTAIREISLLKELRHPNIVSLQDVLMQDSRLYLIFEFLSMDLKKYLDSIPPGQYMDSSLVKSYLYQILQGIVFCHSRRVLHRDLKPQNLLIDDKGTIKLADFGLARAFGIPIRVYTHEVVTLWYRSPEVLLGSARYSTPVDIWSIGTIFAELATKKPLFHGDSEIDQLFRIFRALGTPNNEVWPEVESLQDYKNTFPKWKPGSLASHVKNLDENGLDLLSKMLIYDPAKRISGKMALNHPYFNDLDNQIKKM
Sequence of CDK1/Cyclin E (Homo sapiens) (P24864 whole entry, looked up): as the sequence (P24864 whole entry, looked up) above

Activity [6]: inactive
inhibition [9]: 24%
inhibition [13]: 38%
Activity [14]: Active
inhibition [15]: 15%
Activity [19]: Active
inhibition [20]: 35%
inhibition [23]: 34%
inhibition [25]: 31%
SMILES: O=C1CCC(Nc2cccc(N3CCN(CC4CCN(CC(=O)N5CCC(NC(=O)c6n[nH]cc6NC(=O)c6c(Cl)cccc6Cl)CC5)CC4)CC3)c2)C(=O)N1 (stereo unspecified)
Activity (NCI-H69 [1]): Dose-dependent-effect
inhibition (NCI-H446 [2]): Active
Activity [3]: Active
inhibition (DMS-114): Active
Activity (NCI-H69 [4]): Dose-dependent-effect
inhibition (NCI-H69 [5]): Active
Activity (NCI-H69 [7]): Dose-dependent-effect
Activity (NCI-H446 [8]): Dose-dependent-effect
Activity (NCI-H446 [10]): Active
Activity (NCI-H69 [11]): Dose-dependent-effect
Activity (NCI-H69 [12]): Dose-dependent-effect
Activity [16]: Active
Activity (NCI-H446 [17]): inactive
Activity (NCI-H69 [18]): Active
Activity (NCI-H446 [21]): Active
Activity (NCI-H69 [22]): Active
Activity (NCI-H69 [24]): inactive
